Data published in patent US11478466B2, “Small molecule promoting osteoblast differentiation” (Cornell University, priority 2019, dated 2022).

Key:
Assay type in all cases: cell-based, mouse
[1] = system: alkaline phosphatase (ALP); test: ALP expression staining in C2C12 cells; settings: C2C12, 2 days, 10 μM
Experimental: C2C12 cells were treated for 2 days with 10 μM DIPQUO or structural analogs, 1 ng/ml rhBMP4, or with inhibitors as noted in figure legends, and then fixed briefly in 70% acetone/10% formaldehyde/20% citrate. Staining was achieved using the leukocyte alkaline phosphatase kit (Sigma 86R-1KT) according to the manufacturer's instructions. Expression of ALP was confirmed and quantified by flow cytometric analysis, using an Accuri C6 flow cytometer. Briefly, control- or DIPQUO-treated C2C12 cells were detached and harvested on day 2 using PBS-based enzyme-free cell detachment solution (ThermoFisher). 2×10^5 cells were incubated on ice for 30 minutes with 10 μl APC-conjugated ALPL antibody (R&D Systems), and washed in ice-cold PBS before analysis. Live cells were gated and analyzed in CFlow Plus software and then data was converted to FlowJo to achieve publication-level resolution. For siRNA experiments, gene-specific oligonucleotides were obtained for mouse p38-alpha (Cell Signaling) and p38-beta (Santa Cruz). Signal Silence scramble siRNA control oligonucleotide was purchased from Cell Signaling. C2C12 cells at 70% confluency were transfected in 12-well plates using Lipofectamine RNAiMax reagent (Invitrogen) according to manufacturer's instructions. Transfected cells were treated 24 hours later with DMSO or 10 μM DIPQUO, and siRNA transfection was repeated after 48 hours without changing culture media. After an additional 3 days, cells were either fixed and stained for ALP expression or analyzed for ALP activity using the AttoPhos Substrate kit. Hemagglutinin and FLAG epitope-tagged MKK3 (pMT2-HA-MKK3) and MKK6 (pcDNA3-FLAG-MKK6) constructs were obtained from Addgene and transfected into C2C12 cells using Lipofectamine LTX with Plus Reagent (ThermoFisher) according to manufacturer's instructions and cell extracts analyzed for protein expression and activity as described below.

MKK3/6 = test: Western blotting of MKK3/6 in BRITER cells
Experimental: Cells were maintained in DMEM with 10% FBS. For analysis of DIPQUO effects independent of BMP signaling, BMP-2 and BMP-4 knockdown was achieved by treating cells overnight with 1 μM 4-hydroxytamoxifen (4-OHT), followed by continued maintenance in 1 μM 4-OHT. Cells were serum-starved for at least 6 hours before treatment with recombinant BMP protein or DIPQUO as noted in figure legends.
Whole cell extracts were collected from C2C12 or BRITER cells in complete lysis buffer (20 mM Tris, 150 mM NaCl, 50 mM NaF, 1% NP40 substitute, HALT protease inhibitor cocktail (ThermoScientific). Proteins were resolved by electrophoresis on pre-cast 10% NuPage Bis-Tris gels (Invitrogen) and transferred to PVDF membranes (Bio-Rad). Membranes were blocked in 5% BSA-TBS-0.5% Tween-20 for 15 minutes, then incubated at 4° overnight with primary antibodies. Antibodies used were: rabbit anti-phospho-p38 MAPK (cat. no. 9211), anti-p38 MAPK XP (8690), anti-phospho-SMAD1/5 (9516), anti-SMAD1 XP (6944), anti-phospho-SMAD2/3 (8828), anti-SMAD2/3 XP (8685), anti-phospho-JNK (4668), anti-SAPK/JNK (9252), anti-phospho-Akt XP (4060), pan anti-Akt (4691), anti-phospho ERK p42/p44 (4377), anti-ERK p42/p44 (9102), anti-phospho-MKK3/6 (12280), anti-MKK3 (8535), anti-phospho-TAK1 (4531), anti-TAK1 (5206), anti-HA (3274), and anti-FLAG (14793); all from Cell Signaling); and mouse anti-p38α (cat. no. […]

[2] = system: PI3K/Akt, ERK, TGF-β/SMAD2/3, BMP/SMAD1/5/9; test: Western blotting of other signaling effectors in C2C12 cells
Experimental: Whole cell extracts were collected from C2C12 or BRITER cells in complete lysis buffer (20 mM Tris, 150 mM NaCl, 50 mM NaF, 1% NP40 substitute, HALT protease inhibitor cocktail (ThermoScientific). Proteins were resolved by electrophoresis on pre-cast 10% NuPage Bis-Tris gels (Invitrogen) and transferred to PVDF membranes (Bio-Rad). Membranes were blocked in 5% BSA-TBS-0.5% Tween-20 for 15 minutes, then incubated at 4° overnight with primary antibodies. Antibodies used were: rabbit anti-phospho-p38 MAPK (cat. no. 9211), anti-p38 MAPK XP (8690), anti-phospho-SMAD1/5 (9516), anti-SMAD1 XP (6944), anti-phospho-SMAD2/3 (8828), anti-SMAD2/3 XP (8685), anti-phospho-JNK (4668), anti-SAPK/JNK (9252), anti-phospho-Akt XP (4060), pan anti-Akt (4691), anti-phospho ERK p42/p44 (4377), anti-ERK p42/p44 (9102), anti-phospho-MKK3/6 (12280), anti-MKK3 (8535), anti-phospho-TAK1 (4531), anti-TAK1 (5206), anti-HA (3274), and anti-FLAG (14793); all from Cell Signaling); and mouse anti-p38α (cat. no. 33-1300), anti-p38β (33-8700; both ThermoFisher) and anti-β-actin (Sigma A1978). Proteins were visualized with HRP-conjugated secondary antibodies (Bio-Rad) with WestPico (ThermoFisher) or Immobilon (Millipore) chemiluminescence reagents. Images were obtained and analyzed for relative densitometric relationships on a LI-COR C-DiGit scanner using Image Studio software.

Cc1cc(C)c2[nH]c(=O)c(-c3[nH]cnc3-c3ccccc3)cc2c1 [RU-0226606, 6,8-dimethyl-3-(4-phenyl-1H-imidazol-5-yl)quinolin-2(1H)-one]
ALP expression by staining [1]: rapidly stimulate ALP expression within 2 days
phosphorylation of MKK3/6 (MKK3/6): stimulated rapid phosphorylation of MKK3/6
other pathways (PI3K/Akt, ERK, TGF-β/SMAD2/3, BMP/SMAD1/5/9) [2]: no change observed
